# Measurements from patent US20160213788A1, “ACTIVE TARGETING ANTITUMOR DRUG AND PREPARATION METHOD THEREFOR” (NINGBO INSTITUTE OF MATERIALS TECHNOLOGY & ENGINEERING, …, priority 2013, published 2016).
# How the values were obtained:
# [1] = test system: human endometrial tumors HEC-1B-Y5 cells; assay: MTT test (cell toxicity test); assay type: cell-based; settings: for survival rate of cell (%): HEC-1B-Y5, 4 h exposure then 44 h culture
# Experimental: (§1) (1) MTT test (cell toxicity test)
# (§2) 1. formulating a single cell suspension with a medium containing 10% fetal calf serum, and then seeding the suspension into 96-well plates in 1.0×10^5 cells per well. The volume of each well was 150 μL.
# (§3) 2. placing the plates into a cell incubator of 37° C. and culturing for 24 h.
# (§4) 3. absorbing and discarding the supernatant of the medium in the well, and adding […], fresh medium containing TXT or […], solution containing composition [D-Arg^25]-NPY-ANP-TXT with same concentration of TXT.
# (§5) 4. placing into a cell incubator of 37° C. and culturing for 4 h, absorbing and discarding the supernatant of the medium in the well, and then replacing with fresh medium contain no medication or nanoparticle composition, and continuing to culture for 44 h.
# (§6) 5. adding 10 μL MTT solution (5 mg/ml, in PBS, pH=7.4) into each well, placing the plates into a cell incubator of 37° C. and continuing to culture for 4 h, terminating the culture, and then absorbing and discarding the supernatant of the medium in the well.
# (§7) 6. adding 150 μL DMSO into each well, oscillating for 10 min, so that the crystal was fully thawed.
# (§8) 7. selecting 550 nm wavelength, and measuring the light absorbance for each well with enzyme-linked immunosorbent monitor and recording the results.
# (§9) The cells used in cell experiments comprised human breast cancer MCF-7 cells, human endometrial tumors HEC-1B-Y5 cells (Purchased from American Type Culture Collection (ATCC) and Sciencell company(USA))
# [2] = test system: human breast cancer MCF-7 cells; assay: MTT test (cell toxicity test); assay type: cell-based; settings: for survival rate of cell (%): MCF-7, 4 h exposure then 44 h culture
# Experimental: as §1, §2, §3, §4, §5, §6, §7, §8, §9
smiles,measurement,setting,value
"CC(=O)O[C@@]12CO[C@@H]1C[C@H](O)[C@@]1(C)C(=O)[C@H](O)C3=C(C)[C@@H](OC(=O)[C@H](O)[C@@H](NC(=O)OC(C)(C)C)c4ccccc4)C[C@@](O)([C@@H](OC(=O)c4ccccc4)[C@H]21)C3(C)C [TXT, docetaxel]",survival rate of cell (%),[1]; CTXT 0.5 μg/mL,91%
same,survival rate of cell (%),[1]; CTXT 1.0 μg/mL,79%
same,survival rate of cell (%),[1]; CTXT 2.0 μg/mL,55%
same,survival rate of cell (%),[1]; CTXT 5.0 μg/mL,40%
same,survival rate of cell (%),[1]; CTXT 10.0 μg/mL,30%
same,killing effect (in words),[1]; HEC-1B-Y5 cells,excellent killing effect
same,survival rate of cell (%),[2]; CTXT 0.5 μg/mL,90%
same,survival rate of cell (%),[2]; CTXT 1.0 μg/mL,80%
same,survival rate of cell (%),[2]; CTXT 2.0 μg/mL,50%
same,survival rate of cell (%),[2]; CTXT 5.0 μg/mL,20%
same,survival rate of cell (%),[2]; CTXT 10.0 μg/mL,20%
same,killing effect (in words),[2]; MCF-7 cells,excellent killing effect
